Source: the supplement of paper PMC8967900

How the values were obtained:
Test in all cases: selective drug sensitivity score (sDSS, relative to normal bone marrow) (sDSS (score)); higher = more potent and effective on the cell line relative to normal bone marrow cells
Conditions in all cases: 72 h
COG-LL-319h = test system: COG-LL-319h
MN-60 = test system: MN-60
NALM-6 = test system: NALM-6
MHH-CALL-4 = test system: MHH-CALL-4
CCRF-HSB2 = test system: CCRF-HSB2
MOLT-14 = test system: MOLT-14
REH = test system: REH
DND-41 = test system: DND-41
NALM-16 = test system: NALM-16
KASUMI-10 = test system: KASUMI-10
MOLT-16 = test system: MOLT-16
SUP-B15 = test system: SUP-B15
HPB-ALL = test system: HPB-ALL
TANOUE = test system: TANOUE
SEM cells = test system: SEM cells
NALL-1 = test system: NALL-1
COG-LL-332h = test system: COG-LL-332h
CCRF-CEM = test system: CCRF-CEM
LC4-1 = test system: LC4-1
KASUMI-2 = test system: KASUMI-2
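Also: ALL cell lines in 384-well plates, five doses spanning 10,000-fold, each plate scaled between vehicle and 100 µmol/L benzalkonium chloride controls, sDSS an adapted area-under-curve metric.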

Row | Structure (SMILES) | selective drug sensitivity score (COG-LL-319h) | selective drug sensitivity score (MN-60) | selective drug sensitivity score (NALM-6) | selective drug sensitivity score (MHH-CALL-4) | selective drug sensitivity score (CCRF-HSB2) | selective drug sensitivity score (MOLT-14) | selective drug sensitivity score (REH) | selective drug sensitivity score (DND-41) | selective drug sensitivity score (NALM-16) | selective drug sensitivity score (KASUMI-10) | selective drug sensitivity score (MOLT-16) | selective drug sensitivity score (SUP-B15) | selective drug sensitivity score (HPB-ALL) | selective drug sensitivity score (TANOUE) | selective drug sensitivity score (SEM cells) | selective drug sensitivity score (NALL-1) | selective drug sensitivity score (COG-LL-332h) | selective drug sensitivity score (CCRF-CEM) | selective drug sensitivity score (LC4-1) | selective drug sensitivity score (KASUMI-2)
1 | CC[C@@H]1CN(C(=O)NCC(F)(F)F)C[C@@H]1c1cnc2cnc3[nH]ccc3n12 [Upadacitinib] (top concentration 10000 nM) | -7.16 | -7.16 | -5.96 | -6.46 | -5.06 | -7.16 | -7.16 | 0.84 | -7.16 | -7.16 | -7.16 | -7.16 | -7.16 | -6.86 | -7.16 | -7.16 | -6.66 | -4.66 | -5.16 | -6.56
2 | CN(C)C(=O)c1ccc(S(=O)(=O)c2ccc(NC(=O)[C@@](C)(O)C(F)(F)F)c(Cl)c2)cc1 [AZD7545] (top concentration 10000 nM) | 0.8 | 3.3 | 3.7 | -0.2 | 1.3 | 1 | 4.4 | 0.1 | 0.3 | -0.2 | 5.3 | 4.9 | 0.3 | 3.4 | 0.6 | -0.2 | 0.5 | 0 | 1.6 | 5.3
3 | CNC(=O)c1ccc(C)c(-n2c(C)cc(OCc3ccc(F)cc3F)c(Br)c2=O)c1 (top concentration 1000 nM) | 0 | 0 | 0.1 | 5 | 0 | 0 | 4 | 0 | 0 | 0 | 0 | 0 | 4.6 | 0 | 1.9 | 0.3 | 0 | 0 | 0 | 0
4 | Cc1nc(=O)c2cc(CN(C)c3ccc(C(=O)N[C@@H](CCC(=O)O)C(=O)O)s3)ccc2[nH]1 [Raltitrexed] (top concentration 1000 nM) | 25.7 | 8.02 | 23 | 16.1 | 21.9 | 17.7 | 24.3 | 16.5 | 9.12 | 18.1 | 25.3 | 28 | 13.4 | -0.58 | 23.9 | 12.8 | 18.3 | 23.3 | 19.3 | 15.8
5 | O=C(O)CCCCC(CCSCc1ccccc1)SCc1ccccc1 (stereo not given) [Devimistat (CPI-613)] (top concentration 10000 nM) | 1.3 | 0.1 | 0 | 0 | 0.3 | 0 | 0 | 0.6 | 0.4 | 0 | 0 | 0 | 0 | 1.8 | 0.6 | 0.1 | 0 | 0 | 2.1 | 0
6 | C[C@@H]1CCN(C(=O)CC#N)C[C@@H]1N(C)c1ncnc2[nH]ccc12 [Tofacitinib] (top concentration 5000 nM) | -7.86 | -7.86 | -7.86 | -4.96 | -3.56 | -7.66 | -7.66 | 1.74 | -7.86 | -7.86 | -7.86 | -7.86 | -7.86 | -7.86 | -7.86 | -7.86 | -7.86 | -7.86 | -7.86 | -7.86
7 | Clc1ccc(C(c2ccccc2Cl)C(Cl)Cl)cc1 (stereo not given) [Mitotane] (top concentration 10000 nM) | -0.08 | -0.08 | -0.08 | 0.12 | -0.08 | 0.32 | -0.08 | -0.08 | -0.08 | -0.08 | -0.08 | -0.08 | 5.12 | -0.08 | -0.08 | -0.08 | 0.92 | -0.08 | -0.08 | -0.08
8 | CC(C)N(CCCNC(=O)Nc1ccc(C(C)(C)C)cc1)C[C@H]1O[C@@H](n2cc(Br)c3c(N)ncnc32)[C@H](O)[C@@H]1O [SGC0946] (top concentration 10000 nM) | -1.12 | -0.72 | -0.82 | -1.12 | 0.68 | -0.02 | 5.18 | -1.02 | -0.62 | -0.12 | 0.78 | -0.62 | 1.18 | -1.12 | -0.72 | 5.58 | 0.18 | 0.88 | -1.02 | -1.12
9 | CCN(c1cc(-c2ccc(CN3CCOCC3)cc2)cc(C(=O)NCc2c(C)cc(C)[nH]c2=O)c1C)C1CCOCC1 [Tazemetostat] (top concentration 10000 nM) | -0.08 | -0.08 | -0.08 | -0.08 | 1.42 | 0.32 | -0.08 | 0.02 | -0.08 | -0.08 | -0.08 | -0.08 | -0.08 | -0.08 | 2.42 | 8.22 | -0.08 | 1.02 | -0.08 | -0.08
